Measured values taken from US8084499B2, “Modified clay mineral” (Ajinomoto Co., Inc., priority 2006, dated 2011).

Test: Emulsion stability (B-type viscometer, 60 rpm viscosity / 6 rpm viscosity)
Conditions: emulsion compositions similar to Example 1, compound of formula (1) with given R1/R2 instead of cocoylarginine ethyl ester
Protocol: A B-type (Brookfield type) viscometer (manufactured by TOKYO KEIKI, DIGITAL VISCOMETER DVL-B) was used. About 100 ml of each emulsion composition was placed in a glass vial container, a rotor was appropriately selected, and the value obtained at a room temperature condition of 25° C., number of rotation of 6 or 60 rpm after 30 seconds was taken as the measurement value at each number of rotation. The measurement value at 60 rpm was divided by the measurement value at 6 rpm, and 0.10 to 0.19 was rated as ⊙, 0.20 to 0.29 was rated as ◯, 0.30 to 0.39 was rated as Δ, and not less than 0.40 was rated as x.

CCCCCCCCCCCC(=O)NC(CCCNC(=N)N)C(=O)OCC (stereo not shown) [lauric acid residue / ethyl group, N-lauroylarginine ethyl ester cation]
emulsion stability, rating: ⊙ (0.10 to 0.19 was rated as ⊙)

CCCCCCCCCCCC(=O)NC(CCCNC(=N)N)C(=O)OCC(C)C (stereo not shown) [lauric acid residue / isobutyl group, N-lauroylarginine isobutyl ester cation]
emulsion stability, rating: ⊙ (0.10 to 0.19 was rated as ⊙)

CCCCCCCCCCCC(=O)N[C@@H](CCCNC(=N)N)C(=O)OC(C)C [lauric acid residue / isopropyl group, N-lauroylarginine isopropyl ester cation]
emulsion stability, rating: ⊙ (0.10 to 0.19 was rated as ⊙)

CCCCCCCCCCCC(=O)NC(CCCNC(=N)N)C(=O)OC(C)CC (stereo not shown) [lauric acid residue / s-butyl group, N-lauroylarginine s-butyl ester cation]
emulsion stability, rating: ⊙ (0.10 to 0.19 was rated as ⊙)

CCCCCCCC/C=C\CCCCCCCC(=O)NC(CCCNC(=N)N)C(=O)OCC (stereo not shown) [oleic acid residue / ethyl group, N-oleylarginine ethyl ester cation]
emulsion stability, rating: ⊙ (0.10 to 0.19 was rated as ⊙)

CCCCCCCCCCCCCCCC(=O)NC(CCCNC(=N)N)C(=O)OCC (stereo not shown) [palmitic acid residue / ethyl group, N-palmitoylarginine ethyl ester cation]
emulsion stability, rating: ⊙ (0.10 to 0.19 was rated as ⊙)

CCCCCCCCCCCCCCCCCC(=O)N[C@@H](CCCNC(=N)N)C(=O)OCC [stearic acid residue / ethyl group, N-stearoylarginine ethyl ester cation]
emulsion stability, rating: ⊙ (0.10 to 0.19 was rated as ⊙)
